Source: publication PMC6941952, “A homogeneous bioluminescent immunoassay to probe cellular signaling pathway regulation” (Communications Biology, 2020)
Several values for one entry are separate records, joined by “and”; a condition that tells them apart may be missing. Equal entries are not always repeated. Where a SMILES comes first, the peptide text is derived from it. The star is where a group is joined. Cbz = O=C(OCc1ccccc1)*

How the values were obtained:
phospho-IκBα (Ser32) = assay: NanoBiT cell-based immunoassay, phosphorylated IκBα in MCF-7 cells; set-up: species or system human; details: for P-IkB Average: background subtracted
Method: (§1) Prior to NanoBiT Cell-Based Immunoassay, 50,000 cells were seeded in 160 µl of complete growth media per well of a 96-well plate and incubated overnight. The cells were checked under microscope and it was determined that 50,000 cells per well in 96-well plate is under 90% confluency for all cells tested. If necessary, the cell culture media were replaced with serum-free media after the cells were stably adherent on the plate and incubated overnight. To treat cells with activators or inhibitors, medium was changed to 30 µl of medium containing inhibitors. If activation of a specific pathway is needed, the cells were stimulated with 10 µl of medium containing activators. To lyse the cells, 10 µl of lysis buffer containing 0.1% digitonin diluted in 1X immunoassay buffer with protease and phosphatase inhibitors was added and the plates were mixed vigorously for 20 min. Then, 50 µl of an antibody mix containing two primary antibodies against the target protein and NanoBiT detecting antibodies (0.3 µl each per well), diluted in 1X immunoassay buffer was added to the lysates. The plates were incubated at 23 °C for 90 min, followed by the addition of 25 µl of Nano-Glo® reagent consisting of Nano-Glo® Luciferase Assay Substrate mixed with 1X immunoassay buffer. Luminescence was measured using a plate-reading luminometer.
In all, 50,000 MCF-7 cells were seeded in 160 µl complete growth medium per well of a 96-well plate and incubated overnight. Half of the cells were treated with 50 ng per ml TNFα and half with vehicle. Cells were lysed as described above and a mixture of NanoBiT secondary antibodies with primary antibodies at the matrix concentrations described in Fig. 2a were added. After 90 min incubation, the Nano-Glo® reagent was added to the reactions as described above and luminescence was measured using a plate-reading luminometer.
(§2) Single dose or dose response inhibitor treatments were performed prior to activation of the pathways as follows. For IκBα, the cells were treated in 30 µl medium with IKK16 or MG132 for 60 min before the addition of 10 µl of DMEM containing appropriate concentration of TNFα. To measure phosphorylation of AKT or STAT3, the corresponding NanoBiT immunoassays were developed with MCF-7 or A431 cells, respectively, according the same scheme used to develop the IκBα assay using the primary antibodies for AKT and STAT3 described in the reagents section. For the AKT assay, MCF-7 cells were incubated overnight in phenol-red free DMEM medium (Gibco #21063-029) without serum. Treatment with LY294002 was performed in 30 µl medium and cells were incubated for 60 min before the addition of 1 µM Insulin. To measure STAT3 phosphorylation, A431 cells were incubated overnight in DMEM medium without serum. […] After addition of the stimulators, the cells were incubated for additional times as follows. IκBα phosphorylation and degradation analyses required both time courses and single time points as described in figures. […] The NanoBiT immunoassay protocol was followed as described above.
(§3) All 96-well assay plates were read using a GloMax® 96 Microplate Luminometer from Promega. The instrument was set to 0.5 s integration time. In order to obtain net change of signal, the reagent background values (signal from the well containing all reagent except primary antibodies) were subtracted from the sample values. To plot and analyze the data, Microsoft Excel and GraphPad Prism® Software were used. IC50 values were determined by using a nonlinear regression fit to a sigmoidal dose response (variable slope).

total IκBα = assay: NanoBiT cell-based immunoassay, total IκBα in MCF-7 cells; set-up: species or system human; details: for Total IkB Average: background subtracted
Method: as §1, with “The cells were checked under microscope and it was determined that 50,000 cells per well in 96-well plate is under 90% confluency for all cells tested.” left out
as §2, with “For the AKT assay, MCF-7 cells were incubated overnight in phenol-red free DMEM medium (Gibco #21063-029) without serum.” left out
as §3

Question: What does the source list for `CC(C)C[C@@H](C=O)NC(=O)[C@H](CC(C)C)NC(=O)[C@H](CC(C)C)NC(=O)OCc1ccccc1` [MG132] (Cbz-Leu-Leu-Leu-aldehyde)?
Answer: P-IkB Raw data (phospho-IκBα (Ser32); MG132, TNF 0 min): 22120 and 22340 and 21000 and 22420; P-IkB Subtract reagent background (phospho-IκBα (Ser32); MG132, TNF 0 min): 5850 and 5550 and 5770 and 4430; P-IkB Average (phospho-IκBα (Ser32); MG132, TNF 0 min): 5400; P-IkB Raw data (phospho-IκBα (Ser32); MG132, TNF 2 min): 23520 and 22950 and 21920 and 24690; P-IkB Subtract reagent background (phospho-IκBα (Ser32); MG132, TNF 2 min): 8120 and 6950 and 6380 and 5350; P-IkB Average (phospho-IκBα (Ser32); MG132, TNF 2 min): 6700; P-IkB Raw data (phospho-IκBα (Ser32); MG132, TNF 4 min): 23590 and 23010 and 22240 and 23600; P-IkB Subtract reagent background (phospho-IκBα (Ser32); MG132, TNF 4 min): 7030 and 7020 and 6440 and 5670; P-IkB Average (phospho-IκBα (Ser32); MG132, TNF 4 min): 6540; P-IkB Raw data (phospho-IκBα (Ser32); MG132, TNF 6 min): 26150 and 25190 and 24160 and 26140; P-IkB Raw data (phospho-IκBα (Ser32); MG132, TNF 8 min): 31970 and 30150 and 26560 and 32480; P-IkB Subtract reagent background (phospho-IκBα (Ser32); MG132, TNF 8 min): 15910 and 15400 and 13580 and 9990; P-IkB Average (phospho-IκBα (Ser32); MG132, TNF 8 min): 13720; P-IkB Raw data (phospho-IκBα (Ser32); MG132, TNF 10 min): 38930 and 36060 and 31570 and 39590; P-IkB Subtract reagent background (phospho-IκBα (Ser32); MG132, TNF 10 min): 23020 and 22360 and 19490 and 15000; P-IkB Average (phospho-IκBα (Ser32); MG132, TNF 10 min): 19968; P-IkB Raw data (phospho-IκBα (Ser32); MG132, TNF 12 min): 47120 and 43420 and 37410 and 48430; P-IkB Subtract reagent background (phospho-IκBα (Ser32); MG132, TNF 12 min): 31860 and 30550 and 26850 and 20840; P-IkB Average (phospho-IκBα (Ser32); MG132, TNF 12 min): 27525; P-IkB Raw data (phospho-IκBα (Ser32); MG132, TNF 15 min): 56120 and 51230 and 43530 and 56550; P-IkB Subtract reagent background (phospho-IκBα (Ser32); MG132, TNF 15 min): 39980 and 39550 and 34660 and 26960; P-IkB Average (phospho-IκBα (Ser32); MG132, TNF 15 min): 35288; P-IkB Raw data (phospho-IκBα (Ser32); MG132, TNF 30 min): 63690 and 60630 and 51570 and 63760; P-IkB Subtract reagent background (phospho-IκBα (Ser32); MG132, TNF 30 min): 47190 and 47120 and 44060 and 35000; P-IkB Average (phospho-IκBα (Ser32); MG132, TNF 30 min): 43343; TNFα-induced degradation of IκBα (total IκBα; MCF-7 cells, 20 µM 1 h pretreatment, TNFα 50 ng per ml): inhibited; Total IkB Raw data (total IκBα; MG132, TNF 0 min): 86990 and 84090 and 85790 and 87340; Total IkB Subtract reagent background (total IκBα; MG132, TNF 0 min): 70533 and 70183 and 67283 and 68983; Total IkB Average (total IκBα; MG132, TNF 0 min): 69245; Total IkB Raw data (total IκBα; MG132, TNF 2 min): 89610 and 87100 and 86710 and 88460; Total IkB Subtract reagent background (total IκBα; MG132, TNF 2 min): 71653 and 72803 and 70293 and 69903; Total IkB Average (total IκBα; MG132, TNF 2 min): 71163; Total IkB Raw data (total IκBα; MG132, TNF 4 min): 87350 and 84610 and 87580 and 85650; Total IkB Subtract reagent background (total IκBα; MG132, TNF 4 min): 68843 and 70543 and 67803 and 70773; Total IkB Average (total IκBα; MG132, TNF 4 min): 69490; Total IkB Raw data (total IκBα; MG132, TNF 6 min): 86900 and 82270 and 84580 and 89030; Total IkB Subtract reagent background (total IκBα; MG132, TNF 6 min): 72223 and 70093 and 65463 and 67773; Total IkB Average (total IκBα; MG132, TNF 6 min): 68888; Total IkB Raw data (total IκBα; MG132, TNF 8 min): 86550 and 79990 and 82380 and 88200; Total IkB Subtract reagent background (total IκBα; MG132, TNF 8 min): 71393 and 69743 and 63183 and 65573; Total IkB Average (total IκBα; MG132, TNF 8 min): 67473; Total IkB Raw data (total IκBα; MG132, TNF 10 min): 86190 and 79560 and 78070 and 90680; Total IkB Subtract reagent background (total IκBα; MG132, TNF 10 min): 73873 and 69383 and 62753 and 61263; Total IkB Average (total IκBα; MG132, TNF 10 min): 66818; Total IkB Raw data (total IκBα; MG132, TNF 12 min): 85440 and 78280 and 77940 and 85890; Total IkB Subtract reagent background (total IκBα; MG132, TNF 12 min): 69083 and 68633 and 61473 and 61133; Total IkB Average (total IκBα; MG132, TNF 12 min): 65080; Total IkB Raw data (total IκBα; MG132, TNF 15 min): 85380 and 79290 and 77150 and 87460; Total IkB Subtract reagent background (total IκBα; MG132, TNF 15 min): 70653 and 68573 and 62483 and 60343; Total IkB Average (total IκBα; MG132, TNF 15 min): 65513; Total IkB Raw data (total IκBα; MG132, TNF 30 min): 74090 and 69470 and 69970 and 74150; Total IkB Subtract reagent background (total IκBα; MG132, TNF 30 min): 57343 and 57283 and 52663 and 53163; Total IkB Average (total IκBα; MG132, TNF 30 min): 55113

Question: Which “IκBα after the degradation phase (de novo synthesis)” value (total IκBα; MCF-7 cells, TNFα 50 ng per ml, 20 µg per ml added after 30 min) does the source give for `C[C@@H]1C[C@@H]([C@H](O)CC2CC(=O)NC(=O)C2)C(=O)[C@@H](C)C1` [cycloheximide] here?
Answer: not detected
